Source: ChEMBL document CHEMBL1201862, “PubChem BioAssay data set” (2004)
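Following 48 hours of exposure in 96-well plates, responses at five concentrations were used to interpolate endpoints linearly. GI50 marks 50% less growth.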 The source made the active and inactive calls. Cut-off read from the data, not from the text of the source: active = GI50 up to about 1.1 µM and inactive = higher.

Experiments:
Assay in all cases: NCI-60 cell line screen, 48 h
786-0 = tested on: 786-0
A498 = tested on: A498
A549 = tested on: A549
ACHN = tested on: ACHN
BT-549 = tested on: BT-549
CAKI-1 = tested on: CAKI-1
CCRF-CEM = tested on: CCRF-CEM
COLO 205 = tested on: COLO 205
DU-145 = tested on: DU-145
EKVX = tested on: EKVX
HCC 2998 = tested on: HCC 2998
HCT-116 = tested on: HCT-116
HCT-15 = tested on: HCT-15
HL-60 = tested on: HL-60
HOP-62 = tested on: HOP-62
HT-29 = tested on: HT-29
Hs-578T = tested on: Hs-578T
IGROV-1 = tested on: IGROV-1
K562 = tested on: K562
KM12 = tested on: KM12
LOX IMVI = tested on: LOX IMVI
M14 = tested on: M14
MCF7 = tested on: MCF7
MDA-MB-231 = tested on: MDA-MB-231
MDA-MB-435 = tested on: MDA-MB-435
MDA-N = tested on: MDA-N
MOLT-4 = tested on: MOLT-4
Malme-3M = tested on: Malme-3M
NCI-H226 = tested on: NCI-H226
NCI-H23 = tested on: NCI-H23
NCI-H460 = tested on: NCI-H460
NCI-H522 = tested on: NCI-H522
NCI/ADR-RES = tested on: NCI/ADR-RES
OVCAR-3 = tested on: OVCAR-3
OVCAR-4 = tested on: OVCAR-4
OVCAR-5 = tested on: OVCAR-5
OVCAR-8 = tested on: OVCAR-8
PC-3 = tested on: PC-3
RPMI-8226 = tested on: RPMI-8226
SF-268 = tested on: SF-268
SF-295 = tested on: SF-295
SF-539 = tested on: SF-539
SK-MEL-28 = tested on: SK-MEL-28
SK-MEL-2 = tested on: SK-MEL-2
SK-MEL-5 = tested on: SK-MEL-5
SK-OV-3 = tested on: SK-OV-3
SN12C = tested on: SN12C
SNB-19 = tested on: SNB-19
SNB-75 = tested on: SNB-75
SR = tested on: SR
SW-620 = tested on: SW-620
T47D = tested on: T47D
TK-10 = tested on: TK-10
U-251 = tested on: U-251
UACC-257 = tested on: UACC-257
UACC-62 = tested on: UACC-62
UO-31 = tested on: UO-31

Compound: COC(=O)C1(Cc2ccc3c(c2)CCC3)Cc2ccccc2C1O (configuration not stated)
- GI50 (786-0): 16.3 µM (inactive)
- GI50 (A498): 18.2 µM (inactive)
- GI50 (A549): 20.5 µM (inactive)
- GI50 (ACHN): 18.3 µM (inactive)
- GI50 (BT-549): 18.7 µM (inactive)
- GI50 (CAKI-1): 23.8 µM (inactive)
- GI50 (CCRF-CEM): 13.1 µM (inactive)
- GI50 (COLO 205): 17.3 µM (inactive)
- GI50 (DU-145): 39.4 µM (inactive)
- GI50 (EKVX): 22.8 µM (inactive)
- GI50 (HCC 2998): 15.3 µM (inactive)
- GI50 (HCT-116): 17.4 µM (inactive)
- GI50 (HCT-15): 21.5 µM
- GI50 (HL-60): 37.5 µM (inactive)
- GI50 (HOP-62): 22.9 µM (inactive)
- GI50 (HT-29): 16.7 µM (inactive)
- GI50 (Hs-578T): 20 µM (inactive)
- GI50 (IGROV-1): 21.6 µM (inactive)
- GI50 (K562): 12.2 µM (inactive)
- GI50 (KM12): 22.6 µM (inactive)
- GI50 (LOX IMVI): 15.1 µM (inactive)
- GI50 (M14): 19.6 µM (inactive)
- GI50 (MCF7): 24.3 µM (inactive)
- GI50 (MDA-MB-231): 21.3 µM (inactive)
- GI50 (MDA-MB-435): 18.7 µM (inactive)
- GI50 (MDA-N): 3.36 µM (inactive)
- GI50 (MOLT-4): 8.22 µM (inactive)
- GI50 (Malme-3M): 18.1 µM (inactive)
- GI50 (NCI-H226): 17.3 µM (inactive)
- GI50 (NCI-H23): 19.8 µM (inactive)
- GI50 (NCI-H460): 18.6 µM (inactive)
- GI50 (NCI-H522): 15.9 µM (inactive)
- GI50 (NCI/ADR-RES): 18.7 µM (inactive)
- GI50 (OVCAR-3): 20.5 µM (inactive)
- GI50 (OVCAR-4): 13.9 µM (inactive)
- GI50 (OVCAR-5): 28.6 µM (inactive)
- GI50 (OVCAR-8): 18.6 µM (inactive)
- GI50 (PC-3): 11.5 µM (inactive)
- GI50 (RPMI-8226): 24.5 µM (inactive)
- GI50 (SF-268): 19.4 µM (inactive)
- GI50 (SF-295): 17.5 µM (inactive)
- GI50 (SF-539): 17.5 µM (inactive)
- GI50 (SK-MEL-28): 16.9 µM (inactive)
- GI50 (SK-MEL-2): 12.8 µM (inactive)
- GI50 (SK-MEL-5): 16.3 µM (inactive)
- GI50 (SK-OV-3): 19.7 µM (inactive)
- GI50 (SN12C): 15.2 µM (inactive)
- GI50 (SNB-19): 19.3 µM (inactive)
- GI50 (SNB-75): > 10 µM (inactive)
- GI50 (SR): 26.4 µM (inactive)
- GI50 (SW-620): 17.3 µM (inactive)
- GI50 (T47D): 22.6 µM (inactive)
- GI50 (TK-10): 22.1 µM (inactive)
- GI50 (U-251): 16.8 µM (inactive)
- GI50 (UACC-257): 15 µM (inactive)
- GI50 (UACC-62): 14.5 µM (inactive)
- GI50 (UO-31): 15.7 µM (inactive)
